Columns and labels:
Format in all cases: in vivo
[1] = test system: Cabbage Looper (Trichoplusia ni); assay: Bioassays on CL, 128-well diet tray assay; conditions: for mortality at 50 µg/cm2 / mortality at 0.05 µg/cm2 / mortality at 0.5 µg/cm2 / mortality at 5 µg/cm2: Trichoplusia ni; for mortality at 50 µg/cm2: 168 h, read-out: CL % Control (or Mortality) rating; for mortality at 0.05 µg/cm2: 0.05 μg/cm^2; for mortality at 0.05 µg/cm2 / mortality at 0.5 µg/cm2 / mortality at 5 µg/cm2: read-out: CL Percent control (or mortality); for mortality at 0.5 µg/cm2: 0.5 μg/cm^2; for mortality at 5 µg/cm2: 5 μg/cm^2
Procedure: Bioassays on CL were conducted using a 128-well diet tray assay.
One to five second instar CL larvae were placed in each well (3 mL) of the diet tray that had been previously filled with 1 mL of artificial diet to which 50 μg/cm^2 of the test molecule (dissolved in 50 μL of 90:10 acetone-water mixture) had been applied (to each of eight wells) and then allowed to dry. Trays were covered with a clear self-adhesive cover and held at 25° C., 14:10 light-dark for five to seven days. Percent mortality was recorded for the larvae in each well; activity in the eight wells was then averaged. The results are indicated in the table entitled “Table ABC: Biological Results” (See Table Section).
(§1) Bioassays on BAW and CL were conducted according to the procedures outlined in Example A: Bioassays on Beet Armyworm (“BAW”) and Cabbage Looper (“CL”) using the indicated concentrations.

[2] = test system: Yellow Fever Mosquito (Aedes aegypti); assay: Bioassays on Yellow Fever Mosquito larvae, 96-well plate; conditions: from 4000 ppm DMSO master plate, about 1 day-old larvae, 3 days
Procedure: Master plates containing 400 μg of a molecule dissolved in 100 μL of dimethyl sulfoxide (DMSO) (equivalent to a 4000 ppm solution) are used. A master plate of assembled molecules contains 15 μL per well. To this plate, 135 μL of a 90:10 water:acetone mixture is added to each well. A robot (Biomek® NXP Laboratory Automation Workstation) is programmed to dispense 15 μL aspirations from the master plate into an empty 96-well shallow plate (“daughter” plate). There are 6 reps (“daughter” plates) created per master. The created daughter plates are then immediately infested with YFM larvae.
The day before plates are to be treated, mosquito eggs are placed in Millipore water containing liver powder to begin hatching (4 g. into 400 mL). After the daughter plates are created using the robot, they are infested with 220 μL of the liver powder/larval mosquito mixture (about 1 day-old larvae). After plates are infested with mosquito larvae, a non-evaporative lid is used to cover the plate to reduce drying. Plates are held at room temperature for 3 days prior to grading. After 3 days, each well is observed and scored based on mortality. The results are indicated in the table entitled “Table ABC: Biological Results” (See Table Section). AGRICULTURALLY ACCEPTABLE ACID ADDITION SALTS, SALT DERIVATIVES, SOLVATES, ESTER DERIVATIVES, POLYMORPHS, ISOTOPES, AND RADIONUCLIDES

[3] = test system: Beet Armyworm (Spodoptera exigua); assay: Bioassays on BAW, 128-well diet tray assay; conditions: for mortality at 50 µg/cm2 / mortality at 0.05 µg/cm2 / mortality at 0.5 µg/cm2 / mortality at 5 µg/cm2: Spodoptera exigua; for mortality at 50 µg/cm2: 168 h, read-out: BAW % Control (or Mortality) rating; for mortality at 0.05 µg/cm2: 0.05 μg/cm^2; for mortality at 0.05 µg/cm2 / mortality at 0.5 µg/cm2 / mortality at 5 µg/cm2: read-out: BAW Percent control (or mortality); for mortality at 0.5 µg/cm2: 0.5 μg/cm^2; for mortality at 5 µg/cm2: 5 μg/cm^2
Procedure: Bioassays on BAW were conducted using a 128-well diet tray assay. One to five second instar BAW larvae were placed in each well (3 mL) of the diet tray that had been previously filled with 1 mL of artificial diet to which 50 μg/cm^2 of the test molecule (dissolved in 50 μL of 90:10 acetone-water mixture) had been applied (to each of eight wells) and then allowed to dry. Trays were covered with a clear self-adhesive cover and held at 25° C., 14:10 light-dark for five to seven days. Percent mortality was recorded for the larvae in each well; activity in the eight wells was then averaged. The results are indicated in the table entitled “Table ABC: Biological Results” (See Table Section).
as §1

[4] = 50 μg/cm^2 on artificial diet, second instar larvae, five to seven days

Row | SMILES | mortality at 50 µg/cm2 [1, 4] [%] | YFM % Control (or Mortality) rating [2] | mortality at 50 µg/cm2 [3, 4] [%] | also measured
1 | O=C(NCCSCC(F)(F)F)c1ccc(/C=C/C(c2cc(Cl)c(Cl)c(Cl)c2)C(F)(F)F)cc1Br (stereo not drawn) [F1, (E)-2-bromo-4-(4,4,4-trifluoro-3-(3,4,5-trichlorophenyl)but-1-en-1-yl)-N-(2-((2,2,2-trifluoroethyl)thio)ethyl)benzamide] | 50 to 100 | A (80-100) | 50 to 100 | –
2 | O=C(NCC[S+]([O-])Cc1ccccc1)c1ccc(/C=C/C(c2cc(Cl)c(Cl)c(Cl)c2)C(F)(F)F)cc1Br (stereo not drawn) [F2, (E)-N-(2-(Benzylsulfinyl)ethyl)-2-bromo-4-(4,4,4-trifluoro-3-(3,4,5-trichlorophenyl)but-1-en-1-yl)benzamide] | 50 to 100 | A (80-100) | 50 to 100 | –
3 | O=C(NCC[S+]([O-])CC(F)(F)F)c1ccc(/C=C/C(c2cc(Cl)c(Cl)c(Cl)c2)C(F)(F)F)cc1Br (stereo not drawn) [F3, (E)-2-bromo-4-(4,4,4-trifluoro-3-(3,4,5-trichlorophenyl)but-1-en-1-yl)-N-(2-((2,2,2-trifluoroethyl)sulfinyl)ethyl)benzamide] | 50 to 100 | B (More than 0-Less than 80) | 50 to 100 | –
4 | CC[C@H](CSCCC(F)(F)F)NC(=O)c1ccc(/C=C/C(c2cc(Cl)c(Cl)c(Cl)c2)C(F)(F)F)cc1C(F)(F)F (stereo partly drawn) [F11, 4-((E)-4,4,4-trifluoro-3-(3,4,5-trichlorophenyl)but-1-en-1-yl)-2-(trifluoromethyl)-N—((R)-1-((3,3,3-trifluoropropyl)thio)butan-2-yl)benzamide] | 50 to 100 | B (More than 0-Less than 80) | 50 to 100 | –
5 | CC[C@H](CSCC(F)(F)F)NC(=O)c1ccc(/C=C/C(c2cc(Cl)c(Cl)c(Cl)c2)C(F)(F)F)cc1C(F)(F)F (stereo partly drawn) [F12, 4-((E)-4,4,4-Trifluoro-3-(3,4,5-trichlorophenyl)but-1-en-1-yl)-N—((R)-1-((2,2,2-trifluoroethyl)thio)butan-2-yl)-2-(trifluoromethyl)benzamide] | 50 to 100 | A (80-100) | 50 to 100 | –
6 | CC[C@H](CSCC1CC1(F)F)NC(=O)c1ccc(/C=C/C(c2cc(Cl)c(Cl)c(Cl)c2)C(F)(F)F)cc1C(F)(F)F (stereo partly drawn) [F13, N-((2R)-1-(((2,2-Difluorocyclopropyl)methyl)thio)butan-2-yl)-4-((E)-4,4,4-trifluoro-3-(3,4,5-trichlorophenyl)but-1-en-1-yl)-2-(trifluoromethyl)benzamide] | 50 to 100 | A (80-100) | 50 to 100 | –
7 | CC(C)[C@H](CSCC(F)(F)F)NC(=O)c1ccc(/C=C/C(c2cc(Cl)c(Cl)c(Cl)c2)C(F)(F)F)cc1C(F)(F)F (stereo partly drawn) [F14, N—((R)-3-Methyl-1-((2,2,2-trifluoroethyl)thio)butan-2-yl)-4-((E)-4,4,4-trifluoro-3-(3,4,5-trichlorophenyl)but-1-en-1-yl)-2-(trifluoromethyl)benzamide] | 50 to 100 | A (80-100) | 50 to 100 | –
8 | CC[C@H](CS(=O)(=O)CCC(F)(F)F)NC(=O)c1ccc(/C=C/C(c2cc(Cl)c(Cl)c(Cl)c2)C(F)(F)F)cc1C(F)(F)F (stereo partly drawn) [F21, 4-((E)-4,4,4-Trifluoro-3-(3,4,5-trichlorophenyl)but-1-en-1-yl)-2-(trifluoromethyl)-N—((R)-1-((3,3,3-trifluoropropyl)sulfonyl)butan-2-yl)benzamide] | 50 to 100 | A (80-100) | 50 to 100 | –
9 | C[C@H](CS(=O)(=O)CC(F)(F)F)NC(=O)c1ccc(/C=C/C(c2cc(Cl)c(Cl)c(Cl)c2)C(F)(F)F)cc1C(F)(F)F (stereo partly drawn) [F24, 4-((E)-4,4,4-Trifluoro-3-(3,4,5-trichlorophenyl)but-1-en-1-yl)-N—((R)-1-((2,2,2-trifluoroethyl)sulfonyl)propan-2-yl)-2-(trifluoromethyl)benzamide] | 50 to 100 | A (80-100) | 50 to 100 | mortality at 0.05 µg/cm2 [1]: 100%; mortality at 0.5 µg/cm2 [1]: 100%; mortality at 5 µg/cm2 [1]: 100%; mortality at 0.05 µg/cm2 [3]: 100%; mortality at 0.5 µg/cm2 [3]: 100%; mortality at 5 µg/cm2 [3]: 100%
10 | CS(=O)(=O)CC[C@@H](NC(=O)c1ccc(/C=C/C(c2cc(Cl)c(Cl)c(Cl)c2)C(F)(F)F)cc1C(F)(F)F)C(=O)NCC(F)(F)F (stereo partly drawn) [F27, N—((R)-4-(Methylsulfonyl)-1-oxo-1-((2,2,2-trifluoroethyl)amino)butan-2-yl)-4-((E)-4,4,4-trifluoro-3-(3,4,5-trichlorophenyl)but-1-en-1-yl)-2-(trifluoromethyl)benzamide] | – | A (80-100) | – | CL % Control (or Mortality) rating [1, 4]: A (50-100); BAW % Control (or Mortality) rating [3, 4]: A (50-100)
11 | C[C@H](CS(=O)(=O)CC(F)(F)F)NC(=O)c1ccc(/C=C/C(c2ccc(F)c(C(F)(F)F)c2)C(C)(F)F)cc1C(F)(F)F (stereo partly drawn) [F135, 4-((E)-4,4-Difluoro-3-(4-fluoro-3-(trifluoromethyl)phenyl)pent-1-en-1-yl)-N—((R)-1-((2,2,2-trifluoroethyl)sulfonyl)propan-2-yl)-2-(trifluoromethyl)benzamide] | 50 to 100 | – | 50 to 100 | –
12 | C[C@H](CS(=O)(=O)CC(F)(F)F)NC(=O)c1ccc(/C=C/C(c2cc(F)c(F)c(F)c2)C(C)(F)F)cc1C(F)(F)F (stereo partly drawn) [F136, 4-((E)-4,4-Difluoro-3-(3,4,5-trifluorophenyl)pent-1-en-1-yl)-N—((R)-1-((2,2,2-trifluoroethyl)sulfonyl)propan-2-yl)-2-(trifluoromethyl)benzamide] | 50 to 100 | – | 50 to 100 | –
13 | C[C@H](CSCC(F)(F)F)NC(=O)c1ccc(/C=C/C(c2ccc(Cl)c(Cl)c2)C(F)(F)F)cc1Br (stereo partly drawn) [F137, 2-Bromo-4-((E)-3-(3,4-dichlorophenyl)-4,4,4-trifluorobut-1-en-1-yl)-N—((R)-1-((2,2,2-trifluoroethyl)thio)propan-2-yl)benzamide] | 50 to 100 | – | 50 to 100 | –
14 | C[C@H](CSCC(F)(F)F)NC(=O)c1ccc(/C=C/C(c2cc(Cl)c(Cl)c(Cl)c2)C(F)(F)F)cc1 (stereo partly drawn) [FC74, 4-((E)-4,4,4-Trifluoro-3-(3,4,5-trichlorophenyl)but-1-en-1-yl)-N—((R)-1-((2,2,2-trifluoroethyl)thio)propan-2-yl)benzamide] | 50 to 100 | – | 50 to 100 | –
15 | C[C@H](C[S+]([O-])CC(F)(F)F)NC(=O)c1ccc(/C=C/C(c2cc(Cl)c(Cl)c(Cl)c2)C(F)(F)F)cc1 (stereo partly drawn) [FC77, 4-((E)-4,4,4-Trifluoro-3-(3,4,5-trichlorophenyl)but-1-en-1-yl)-N-((2R)-1-((2,2,2-trifluoroethyl)sulfinyl)propan-2-yl)benzamide] | 50 to 100 | – | 50 to 100 | –
16 | C[C@H](CS(=O)(=O)CC(F)(F)F)NC(=O)c1ccc(/C=C/C(c2cc(Cl)c(Cl)c(Cl)c2)C(F)(F)F)cc1 (stereo partly drawn) [FC78, 4-((E)-4,4,4-Trifluoro-3-(3,4,5-trichlorophenyl)but-1-en-1-yl)-N—((R)-1-((2,2,2-trifluoroethyl)sulfonyl)propan-2-yl)benzamide] | 50 to 100 | – | 50 to 100 | mortality at 0.05 µg/cm2 [1]: 0%; mortality at 0.5 µg/cm2 [1]: 7%; mortality at 5 µg/cm2 [1]: 100%; mortality at 0.05 µg/cm2 [3]: 0%; mortality at 0.5 µg/cm2 [3]: 19%; mortality at 5 µg/cm2 [3]: 100%

Source: patent US20170210723A1, “MOLECULES HAVING PESTICIDAL UTILITY, AND INTERMEDIATES, COMPOSITIONS, AND PROCESSES, RELATED THERETO” (priority 2016, published 2017)
